Reference: paper PMC10709440, “High-throughput ligand profile characterization in novel cell lines expressing seven heterologous insect olfactory receptors for the detection of volatile plant biomarkers” (Scientific Reports, 2023)
Like-named read-outs stand apart in the source and are kept apart here.

Assays:
[1] = molecular target: T1, Drosophila OR10a (Drosophila melanogaster, UniProt Q9VYZ1); assay: Calcium ion fluorescence (GCaMP6) assay, OR10a stable HEK293 cell line; type: cell-based; conditions: for activation at 1 µM / activation at 10 µM / activation at 100 µM: 50 μM VUAA1 = 1, responses not exceeding 0.05 considered 0; for OR10a response (VUAA1-normalized) at 1 μM / OR10a response (VUAA1-normalized) at 10 μM / OR10a response (VUAA1-normalized) at 100 μM: OR10a cell line; for OR10a response (VUAA1-normalized) at 1 μM: VOC concentration 1 μM; for OR10a response (VUAA1-normalized) at 10 μM: VOC concentration 10 μM; for OR10a response (VUAA1-normalized) at 100 μM: VOC concentration 100 μM; for DF norm AVERAGE OR10a: threshold 0.05, below shown as 0; for EC50: single-concentration estimate from 100 µM, plate 2019.12.05
T1 construct: expressed in transfected cells
T1 sequence (Q9VYZ1 1-406): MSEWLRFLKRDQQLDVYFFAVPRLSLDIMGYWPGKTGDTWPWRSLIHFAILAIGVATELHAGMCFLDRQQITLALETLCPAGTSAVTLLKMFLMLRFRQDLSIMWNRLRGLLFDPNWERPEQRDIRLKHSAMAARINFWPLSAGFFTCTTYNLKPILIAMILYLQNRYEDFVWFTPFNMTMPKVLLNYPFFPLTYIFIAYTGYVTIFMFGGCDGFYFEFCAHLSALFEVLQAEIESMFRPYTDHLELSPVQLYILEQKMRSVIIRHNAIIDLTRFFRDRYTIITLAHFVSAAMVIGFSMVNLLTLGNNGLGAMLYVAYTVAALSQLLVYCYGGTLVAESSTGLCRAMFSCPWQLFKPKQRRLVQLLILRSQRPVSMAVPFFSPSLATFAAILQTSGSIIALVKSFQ
T1 sequence (Q9VNB5 1-486 partner): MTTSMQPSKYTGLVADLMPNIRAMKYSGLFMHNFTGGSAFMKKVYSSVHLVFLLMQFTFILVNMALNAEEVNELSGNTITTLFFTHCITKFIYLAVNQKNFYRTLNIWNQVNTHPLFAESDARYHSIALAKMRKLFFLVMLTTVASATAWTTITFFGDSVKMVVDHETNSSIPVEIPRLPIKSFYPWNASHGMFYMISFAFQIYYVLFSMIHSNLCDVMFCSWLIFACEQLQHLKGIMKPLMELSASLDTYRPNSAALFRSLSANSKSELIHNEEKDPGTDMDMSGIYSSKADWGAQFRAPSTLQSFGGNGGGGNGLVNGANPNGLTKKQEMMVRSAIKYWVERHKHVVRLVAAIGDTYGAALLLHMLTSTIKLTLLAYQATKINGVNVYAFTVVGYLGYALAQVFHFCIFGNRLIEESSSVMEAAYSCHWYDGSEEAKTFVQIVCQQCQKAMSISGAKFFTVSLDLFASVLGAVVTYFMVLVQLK
Procedure, shortened: (§1)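 HEK293 lines stably expressing each Drosophila OR with GCaMP6, doxycycline-induced (1 μg/mL) 48 or 72 h. Fluorescence recorded 5 s baseline then 30 s after VOC injection at pH 7.3; ΔF=(FMAX−F0)/F0, normalized to 50 µM VUAA1 response per line, triplicate wells averaged; concentration series 0.01–100 μM.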

[2] = molecular target: T2, Drosophila OR13a (Drosophila melanogaster, UniProt Q9VXL0); assay: Calcium ion fluorescence (GCaMP6) assay, OR13a stable HEK293 cell line; type: cell-based; conditions: for activation at 1 µM: HEK293, read-out: OR13a Average response (VUAA1-normalized), 1 μM VOC; for activation at 1 µM / activation at 10 µM / activation at 100 µM: 50 μM VUAA1 = 1, responses not exceeding 0.05 considered 0; for activation at 10 µM: HEK293, read-out: OR13a Average response (VUAA1-normalized), 10 μM VOC; for activation at 100 µM: HEK293, read-out: OR13a Average response (VUAA1-normalized), 100 μM VOC; for OR13a response (VUAA1-normalized) at 1 μM / OR13a response (VUAA1-normalized) at 10 μM / OR13a response (VUAA1-normalized) at 100 μM: OR13a cell line; for OR13a response (VUAA1-normalized) at 1 μM: VOC concentration 1 μM; for OR13a response (VUAA1-normalized) at 10 μM: VOC concentration 10 μM; for OR13a response (VUAA1-normalized) at 100 μM: VOC concentration 100 μM; for DF norm AVERAGE OR13a: threshold 0.05, below shown as 0
T2 construct: expressed in transfected cells
T2 sequence (Q9VXL0 1-418): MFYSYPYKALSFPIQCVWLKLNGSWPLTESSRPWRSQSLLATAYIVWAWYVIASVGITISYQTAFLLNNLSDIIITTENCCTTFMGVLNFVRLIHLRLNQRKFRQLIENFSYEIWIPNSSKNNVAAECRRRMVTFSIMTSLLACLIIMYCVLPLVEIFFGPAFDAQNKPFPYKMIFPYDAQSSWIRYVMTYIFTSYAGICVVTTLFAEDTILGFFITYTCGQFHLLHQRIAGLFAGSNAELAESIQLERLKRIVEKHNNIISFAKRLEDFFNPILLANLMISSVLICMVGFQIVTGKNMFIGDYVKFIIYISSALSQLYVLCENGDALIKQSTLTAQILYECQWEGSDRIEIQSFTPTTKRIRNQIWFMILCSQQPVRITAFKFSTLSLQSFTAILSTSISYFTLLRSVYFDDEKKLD
T2 sequence (Q9VNB5 1-486 partner): T1 sequence (Q9VNB5 1-486 partner)
Procedure, shortened: as §1

[3] = HEK293, 1 μM VOC, read-out: OR10a Average response (VUAA1-normalized)
[4] = HEK293, 10 μM VOC, read-out: OR10a Average response (VUAA1-normalized)
[5] = HEK293, 100 μM VOC, read-out: OR10a Average response (VUAA1-normalized)
[6] = ligand concentration 1 (unit not given)
[7] = ligand concentration 10 (unit not given)
[8] = ligand concentration 100 (unit not given)
[9] = 100 µM, OR10a clone G5, single plate 2019.12.05

Compound: C=CC(C)(O)CCC=C(C)C (stereo not drawn) [linalool]
- activation at 1 µM [1, 3]: 2%
- activation at 10 µM [1, 4]: 7%
- activation at 100 µM [1, 5]: 0%
- OR10a response (VUAA1-normalized) at 1 μM [1]: 0.00
- OR10a response (VUAA1-normalized) at 10 μM [1]: 0.07
- OR10a response (VUAA1-normalized) at 100 μM [1]: 0.00
- DF norm AVERAGE OR10a [1, 6]: 0
- DF norm AVERAGE OR10a [1, 7]: 0.06934
- DF norm AVERAGE OR10a [1, 8]: 0
- activation at 1 µM [2]: 1.21%
- activation at 10 µM [2]: 4.47%
- activation at 100 µM [2]: 0%
- OR13a response (VUAA1-normalized) at 1 μM [2]: 0.00
- OR13a response (VUAA1-normalized) at 10 μM [2]: 0.00
- OR13a response (VUAA1-normalized) at 100 μM [2]: 0.00
- DF norm AVERAGE OR13a [2, 6]: 0
- DF norm AVERAGE OR13a [2, 7]: 0
- DF norm AVERAGE OR13a [2, 8]: 0

Compound: Cc1cccc(C)c1 [m-xylene]
- activation at 1 µM ([1]; HEK293, read-out: OR10a Average response (VUAA1-normalized), 1 μM VOC): 0%
- activation at 10 µM ([1]; HEK293, read-out: OR10a Average response (VUAA1-normalized), 10 μM VOC): 0%
- activation at 100 µM ([1]; HEK293, read-out: OR10a Average response (VUAA1-normalized), 100 μM VOC): 2%
- OR10a response (VUAA1-normalized) at 1 μM [1]: 0.00
- OR10a response (VUAA1-normalized) at 10 μM [1]: 0.00
- OR10a response (VUAA1-normalized) at 100 μM [1]: 0.00
- DF norm AVERAGE OR10a [1, 6]: 0
- DF norm AVERAGE OR10a [1, 7]: 0
- DF norm AVERAGE OR10a [1, 8]: 0
- activation at 1 µM [2]: 0%
- activation at 10 µM [2]: 0%
- activation at 100 µM [2]: 4%
- OR13a response (VUAA1-normalized) at 1 μM [2]: 0.00
- OR13a response (VUAA1-normalized) at 10 μM [2]: 0.00
- OR13a response (VUAA1-normalized) at 100 μM [2]: 0.00
- DF norm AVERAGE OR13a [2, 6]: 0
- DF norm AVERAGE OR13a [2, 7]: 0
- DF norm AVERAGE OR13a [2, 8]: 0

Compound: COC(=O)c1ccccc1 [methyl benzoate]
- DF norm, all technical replicates [1, 9]: 0.8079
- DF norm, outlier technical replicates removed [1, 9]: 0.8079
- DF, outlier technical replicates removed [1, 9]: 1.408
- DF, all technical replicates ([1]; 100 µM, OR10a clone G5, single plate 2019.12.05, xc+0.1%DMSO): 1.408
- EC50 ([1]; EC50, all technical replicates, OR10a clone G5): 23.8 µM
- EC50 ([1]; EC50, outlier technical replicates removed, OR10a clone G5): 23.8 µM
- activation at 1 µM [1, 3]: 31%
- activation at 10 µM [1, 4]: 64%
- activation at 100 µM [1, 5]: 67%
- OR10a response (VUAA1-normalized) at 1 μM [1]: 0.31
- OR10a response (VUAA1-normalized) at 10 μM [1]: 0.64
- OR10a response (VUAA1-normalized) at 100 μM [1]: 0.67
- DF norm AVERAGE OR10a [1, 6]: 0.3063
- DF norm AVERAGE OR10a [1, 7]: 0.6425
- DF norm AVERAGE OR10a [1, 8]: 0.6719
- activation at 1 µM [2]: 0%
- activation at 10 µM [2]: 0%
- activation at 100 µM [2]: 6%
- OR13a response (VUAA1-normalized) at 1 μM [2]: 0.00
- OR13a response (VUAA1-normalized) at 10 μM [2]: 0.00
- OR13a response (VUAA1-normalized) at 100 μM [2]: 0.06
- DF norm AVERAGE OR13a [2, 6]: 0
- DF norm AVERAGE OR13a [2, 7]: 0
- DF norm AVERAGE OR13a [2, 8]: 0.06097
